One assay deals with Cytotoxicity. The assay can be described thus: NFkB reporter suppression in cystic fibrosis bronchial cells – cell-based, uHTS hits, panel, cytotoxicity readout, dose response (AID 624344). Conditions: CF bronchial epithelial cells, mean of runs.
Test in assay [1]: as above
Conditions: CF bronchial epithelial cells, PAF-induced NFkB reporter inhibition; with PAF, mean of runs.

Active and inactive are the calls of the source. How the calls were made is not given here. Some results are limits rather than exact numbers.

What is called IC50 is the concentration that gives 50% inhibition. `Brc1cccc(CSc2nnc(-c3ccncc3)o2)c1`: the IC50 with Cytotoxicity is > 79 µM (inactive); in assay [1], 6.88 µM.
In the case of `Cc1[nH]nc2ncc(C(=O)c3ccccc3O)cc12`, the IC50 with Cytotoxicity is 24.3 µM; in assay [1] it was 1.68 µM.
As for `COc1cccc(Nc2ncnc3ccc(Br)cc23)c1`, the IC50 in the assay on Cytotoxicity is 9.61 µM; in assay [1], 1.08 µM.
In the same order, the values of `Cc1c(C(=O)OCC(C)C)[nH]c2c1C(=O)CC(c1ccco1)C2` (stereo not drawn) are 38.3 µM and “inactive”.
In the same order, the values of `COc1ccc(-n2nc(C(=O)NCC(=O)Nc3cc(OC)c(OC)c(OC)c3)c3ccccc3c2=O)cc1Cl` are 23.1 µM and 1.61 µM.
For the compound `FC(F)Sc1ccc(NC(=S)NC(c2ccccc2)c2ccccc2)cc1`, the IC50 in the assay on Cytotoxicity is 9.19 µM; in assay [1] it was 6.53 µM.
In the same order, the values of `CCOCC(=O)NC1CCc2cc(OC(=O)COCC)c(OC)c(OC)c2-c2ccc(SC)c(=O)cc21` (stereo not drawn) are 44.5 µM and “inactive”.
In the same order, the values of `Cn1c(Sc2ccc(Br)cc2)c(C=O)c2ccccc21` are 5.64 µM and 1.4 µM.
In the same order, the values of `CS(=O)(=O)Nc1ccc(-c2cnc3cccnn23)cc1` are > 79 µM (inactive) and 2.5 µM.
With `COc1ccc2cc3c(N)nn(C(=O)Cc4ccccc4OC)c3nc2c1`, the IC50 is 47.4 µM in the assay on Cytotoxicity and 2.67 µM in assay [1].
Consider `Cc1cccc(NC(=O)Nc2ccc(C#N)cc2)n1`, for which the IC50 with Cytotoxicity was 20.6 µM; in assay [1], 1.78 µM.
In the same order, the values of `O=C1CC(=O)OC(c2ccc([N+](=O)[O-])cc2)O1` are 1.79 µM and 2.59 µM.
Turning to `O=[N+]([O-])c1ccc(Oc2ccc(F)cc2Br)c2ccncc12`, the IC50 is 38.6 µM with Cytotoxicity and 3.97 µM in assay [1].
In the same order, the values of `Cc1cccc(N2CCN(C(=O)c3[nH]c(C(F)(F)F)nc3-c3ccccc3)CC2)c1C` are > 79 µM (inactive) and 17.8 µM.
In the same order, the values of `O=C(COC(=O)c1ccc2[nH]c3c(c2c1)CCCC3)Nc1ccccc1Cl` are 36.6 µM and “inactive”.
In the same order, the values of `O=C1/C(=C/c2cccnc2)CCc2c1[nH]c1ccccc21` are 25.1 µM and 5.47 µM.
Turning to `c1csc(Cc2nn3c(-c4ccncc4)nnc3s2)c1`, the IC50 with Cytotoxicity was 57 µM (inactive); in assay [1], 7.94 µM.
As for `CN(C)C=Nc1c(C(=O)c2ccccc2)sc2nccc(N(C)C)c12`, the IC50 in the assay on Cytotoxicity is > 79 µM (inactive); in assay [1] it was 10.9 µM.
In the same order, the values of `COc1cccc(-c2ccc3ncnc(NCc4cc(C)cs4)c3c2)c1` are 26.9 µM and 3.86 µM.
In the same order, the values of `OCCNc1nc(Nc2ccc(Cl)c(Cl)c2)nc2ccccc12` are 4.07 µM and 2.16 µM.
In the same order, the values of `CC1=C(/C=C/C(C)=C/C=C/C(C)=C\C(=O)O)C(C)(C)CCC1` are > 79 µM (inactive) and 0.64 µM.
For `Cc1cccc(CS(=O)(=O)c2ncc(Cl)c(C(=O)NCc3ccccc3)n2)c1`, the IC50 in the assay on Cytotoxicity was 2.27 µM; in assay [1], 2.47 µM.
As for `O=C(NCCCSc1ccccc1)c1cc(Cl)ccc1O`, the IC50 in the assay on Cytotoxicity was 7.97 µM; in assay [1] it was 5.03 µM.
For `CCOC(=O)c1c(C)c2c(=O)[nH]cnc2n1-c1ccccc1`, the IC50 in the assay with Cytotoxicity is 13.9 µM; in assay [1], 1.89 µM.
In the same order, the values of `CN(C)CCCN(C(=O)CCS(=O)(=O)c1ccccc1)c1nc2cc3c(cc2s1)OCO3` are 7.47 µM and 1.7 µM.
In the same order, the values of `COCc1cc(S(=O)c2ccc(Cl)cc2)nc(C)n1` (stereo not drawn) are 22 µM and 3.13 µM.
In the same order, the values of `CCSc1nsc(NC(=O)Nc2cccc(C(C)=O)c2)n1` are 36.5 µM and 2.24 µM.
As to `CC1=C(C(=O)OCc2ccc3c(c2)OCO3)C(c2cccc([N+](=O)[O-])c2)NC(=O)N1` (stereo not drawn), the IC50 is > 79 µM (inactive) with Cytotoxicity and 2.71 µM in assay [1].
In the same order, the values of `CCc1cc(-c2[nH]ncc2-c2ccc(OC)cc2)c(O)cc1O` are 31 µM and 3.56 µM.
With `CCCCCCCCCc1nc2sc3c(c2c(=O)n1NC(=O)c1ccc([N+](=O)[O-])cc1)CC(C)(C)OC3`, the IC50 with Cytotoxicity was 43.8 µM; in assay [1], 5.52 µM.
In the same order, the values of `CCOc1ccc(-n2c(C)c(C(C)=O)c3cc(O)ccc32)cc1` are > 79 µM (inactive) and 1.87 µM.
Take `CS(=O)(=O)c1ccc2nc(NC(=O)Nc3cccc(Cl)c3)sc2c1`: the values for the IC50 (with Cytotoxicity; in assay [1]) were 3.28 µM and 3.67 µM, respectively.
In the same order, the values of `COc1ccc(-c2csc3ncnc(NCCO)c23)cc1` are 54 µM (inactive) and 1.85 µM.
In the same order, the values of `COc1cccc(-c2cnc3c(NC=O)cc(-c4ccc(OC)cc4OC)cn23)c1` are 26 µM and 14.2 µM.
In the same order, the values of `Clc1cncc(Cl)c1N/N=C/c1ccncc1` are 12.5 µM and 1.67 µM.
As for `C=CC[C@@H](CC/C=C/C=C/CC/C=C\[C@@H]1CSC([C@@H]2C[C@@H]2C)=N1)OC`, in the assay with Cytotoxicity, the IC50 was 63 µM (inactive). In assay [1], the IC50 result is “inactive”.
In the same order, the values of `O=C(NNC(=S)Nc1cccc(C(F)(F)F)c1)c1cccc(Cl)c1` are 9.54 µM and 4.81 µM.
In the same order, the values of `Nc1ncnc(N2CCc3ccccc32)c1[N+](=O)[O-]` are 29.7 µM and 0.651 µM.
In the same order, the values of `Oc1ccc(Nc2ncnc3scc(-c4ccccc4)c23)cc1` are 48.7 µM and 12.6 µM.
As for `CCN1CCN(Cc2ccc(NC(=O)c3ccc(C)c(NC(=O)c4ccno4)c3)cc2C(F)(F)F)CC1`, the IC50 is > 79 µM (inactive) with Cytotoxicity and below 0.15 µM in assay [1].
For `COc1ccc2cc3c(N)nn(C(=O)c4ccc(F)cc4)c3nc2c1`, the figures for the IC50 (in the assay with Cytotoxicity; in assay [1]) were 36.6 µM and 1.29 µM, respectively.
In the case of `COc1ccc(OC)c(-c2nnc3n2N=C(c2ccc(OC)c(OCC4CC4)c2)CS3)c1`, the figures for the IC50 (with Cytotoxicity; in assay [1]) were 47.7 µM and 3.87 µM, respectively.
As for `Cc1ccc(CSc2nccc(-c3c(C)nc4ccccn34)n2)cc1`, the results for the IC50 (in the assay with Cytotoxicity; in assay [1]) were 26.4 µM and 3.18 µM, respectively.
For the compound `O=C(CCS(=O)(=O)c1ccccc1)N(CCCN1CCOCC1)c1nc2c(F)cccc2s1`, the IC50 was 18.1 µM with Cytotoxicity and 7.63 µM in assay [1].
In the same order, the values of `COc1ccc(-n2nnnc2C(CCSC)N2CCC(n3c(=O)[nH]c4ccccc43)CC2)cc1` (stereo not drawn) are 13.7 µM and 6.48 µM.
In the same order, the values of `Cc1ccc(C(=O)Nc2cccc(C(F)(F)F)c2)cc1NC(=O)c1ccno1` are > 79 µM (inactive) and 0.626 µM.
Turning to `C=CCN1c2ccccc2Sc2cnccc21`, the IC50 in the assay with Cytotoxicity was 40.6 µM; in assay [1], 2.59 µM.
In the same order, the values of `COCCNc1nc(Oc2cncc(Cl)c2)c2sccc2n1` are 29.1 µM and 2.9 µM.
In the same order, the values of `COc1ccc(S(=O)(=O)N(C(C)=O)c2ccc(OC(C)=O)c3ccccc23)cc1[N+](=O)[O-]` are 6.46 µM and 3.38 µM.
In the same order, the values of `CC(=O)c1ccc(-n2c(C)c(C(C)=O)c3cc(O)ccc32)cc1` are 44.5 µM and 1.34 µM.
On to `Cc1ccc(N(C)C(=O)c2cc(S(=O)(=O)N3CCCCC3)c[nH]2)cc1`, for which the IC50 in the assay with Cytotoxicity is > 79 µM (inactive); in assay [1], 11.5 µM.
For `COc1ccc(Nc2nccc(-c3cccc(N)c3)n2)cc1`, the figures for the IC50 (in the assay with Cytotoxicity; in assay [1]) were 42.6 µM and 4.14 µM, respectively.
`c1cc2[nH]snc2c2nc(C3CC3)nc12`: the IC50 in the assay with Cytotoxicity is 13.3 µM; in assay [1], 3.06 µM.
Take `Cc1cc2cc(CCNC(=O)C(=O)c3c[nH]c4ccccc34)c(=O)[nH]c2cc1C`: the IC50 is 24.3 µM in the assay with Cytotoxicity and 5.72 µM in assay [1].
In the same order, the values of `O=C(Oc1ccc(F)cc1C(=O)/C=C/c1cccs1)c1cccc([N+](=O)[O-])c1` are > 79 µM (inactive) and “inactive”.
On to `O=C(Nc1cccc(-c2cnc3ccccc3n2)c1)c1cccc(NC(=O)c2ccco2)c1`, for which the IC50 with Cytotoxicity was 6.82 µM; in assay [1], 3.68 µM.
For `Cc1ccc(C)c(S(=O)(=O)N(C(=O)c2ccncc2)c2ccc(OC(=O)c3ccncc3)cc2)c1`, the IC50 in the assay on Cytotoxicity is 26.2 µM; in assay [1] it was 2.37 µM.
For `CC(=O)c1c(O)cc2c3c1OC(C)(C)C1CCC(C)(CC31)O2` (stereo not drawn), the IC50 in the assay with Cytotoxicity is 53.5 µM (inactive); in assay [1], 2.73 µM.
In the same order, the values of `CCOC(=O)Nc1ccc2c(c1)N(C(=O)CCN(CC)CC)c1ccccc1S2=O` (stereo not drawn) are 34.5 µM and 5.94 µM.
Regarding `Cc1nn(-c2ccccc2)c(N2CCCC2)c1/C=N/NC(=O)c1cc(-c2ccccc2)nc2ccccc12`, the IC50 in the assay with Cytotoxicity was 58.7 µM (inactive); in assay [1], 5.62 µM.
In the same order, the values of `COc1ccc(Nc2nc(-c3cccs3)nc3ccccc23)cc1S(=O)(=O)N1CCOCC1` are 8.98 µM and 3.78 µM.
In the same order, the values of `O=C1Cc2c([nH]c3ccc(Br)cc23)-c2ccccc2N1` are 16.4 µM and 3.75 µM.
In the same order, the values of `O=C(Nc1cccnc1)c1sc2cccc(F)c2c1Cl` are 43 µM and 12.1 µM.
In the case of `O=C(Nc1ccc(Oc2ccc(NC(=O)Nc3ccc([N+](=O)[O-])cc3)cc2)cc1)Nc1ccc([N+](=O)[O-])cc1`, the IC50 was 27.8 µM with Cytotoxicity and 6.12 µM in assay [1].
In the same order, the values of `O=C(COc1ccc(Cl)cc1)Nc1ncc([N+](=O)[O-])s1` are 3.32 µM and 1.02 µM.
For `CC(=O)Nc1nc(C)c(-c2csc(Nc3cccc(C(C)=O)c3)n2)s1`, the values for the IC50 (in the assay on Cytotoxicity; in assay [1]) were 40.1 µM and 0.538 µM, respectively.
In the same order, the values of `CN1CCN(c2ncnc3scc(-c4ccccc4Cl)c23)CC1` are 57.2 µM (inactive) and 3.89 µM.
In the same order, the values of `COc1cccc(-c2nnc3n2N=C(C(C)(C)C)CS3)c1` are 11.4 µM and 0.442 µM.
In the same order, the values of `CC1=C(C(=O)OCc2ccc3c(c2)OCO3)C(c2ccc(O)c([N+](=O)[O-])c2)NC(=O)N1` (stereo not drawn) are > 79 µM (inactive) and 1.71 µM.

Values taken from PubChem BioAssay AID624344 (Sanford-Burnham Center for Chemical Genomics, 2012).
